Laboratory results from ChEMBL document CHEMBL5038655, “Development of Novel Dihydrofuro[3,4-d]pyrimidine Derivatives as HIV-1 NNRTIs to Overcome the Highly Resistant Mutant Strains F227L/V106A and K103N/Y181C” (J Med Chem, 2022).
≈ marks a conversion by molar mass, not a printed value.

Tests used:
[1] = target: Human immunodeficiency virus type 1 reverse transcriptase (Human immunodeficiency virus 1, UniProt Q72547); experiment: Inhibition of wild type HIV-1 reverse transcriptase using biotin-labelled dNTPs as substrate incubated for 2 hrs by ELISA
[2] = Aqueous solubility of the compound at pH 7.4 by HPLC analysis; type: physicochemical; conditions: buffer
[3] = Aqueous solubility of the compound at pH 7.0 by HPLC analysis; type: physicochemical; conditions: buffer
[4] = system: Human immunodeficiency virus 1; experiment: Antiviral activity against HIV-1 IIIB infected in human MT4 cells assessed as protection against virus-induced cytotoxicity incubated for 5 days by MTT assay; type: functional, organism-based; conditions: Human immunodeficiency virus 1, IIIB, MT4, 120 h
[5] = system: Human immunodeficiency virus 1; experiment: Antiviral activity against HIV-1 IIIB harboring K103N/Y181C double mutant infected in human MT4 cells assessed as protection against virus-induced cytotoxicity incubated for 5 days by MTT assay; type: functional, organism-based; conditions: Human immunodeficiency virus 1, IIIB, MT4, 120 h
[6] = Cytotoxicity against human MT4 cells assessed as reduction in cell viability incubated for 5 days by MTT assay; type: toxicity, cell-based; conditions: time 5 day
[7] = Selectivity index, ratio of CC50 for human MT4 cells to EC50 for antiviral activity against HIV-1 IIIB infected in human MT4 cells; type: toxicity, cell-based; conditions: MT4 cells (uninfected and infected with HIV-1 IIIB), read-out: Ratio CC50/EC50
[8] = Selectivity index, ratio of CC50 for human MT4 cells to EC50 for antiviral activity against HIV-1 IIIB harboring K103N/Y181C double mutant infected in human MT4 cells; type: toxicity, cell-based; conditions: read-out: Ratio CC50/EC50
[9] = system: Human immunodeficiency virus 1; experiment: Antiviral activity against HIV1 L1001 infected in human MT4 cells assessed as protection against virus-induced cytopathic effect incubated for 5 days by MTT assay; type: functional, organism-based; conditions: Human immunodeficiency virus 1, L1001, MT4, 120 h
[10] = system: Human immunodeficiency virus 1; experiment: Antiviral activity against HIV-1 harboring reverse transcriptase K103N mutant infected in human MT4 cells assessed as protection against virus-induced cytopathic effect incubated for 5 days by MTT assay; conditions: Human immunodeficiency virus 1, MT4, 120 h
[11] = system: Human immunodeficiency virus 1; experiment: Antiviral activity against HIV-1 harboring reverse transcriptase Y181C mutant infected in human MT4 cells assessed as protection against virus-induced cytopathic effect incubated for 5 days by MTT assay; conditions: Human immunodeficiency virus 1, MT4, 120 h
[12] = system: Human immunodeficiency virus 1; experiment: Antiviral activity against HIV-1 harboring reverse transcriptase Y188L mutant infected in human MT4 cells assessed as protection against virus-induced cytopathic effect incubated for 5 days by MTT assay; conditions: Human immunodeficiency virus 1, MT4, 120 h
[13] = system: Human immunodeficiency virus 1; experiment: Antiviral activity against HIV-1 harboring reverse transcriptase E138K mutant infected in human MT4 cells assessed as protection against virus-induced cytopathic effect incubated for 5 days by MTT assay; conditions: Human immunodeficiency virus 1, MT4, 120 h
[14] = system: Human immunodeficiency virus 1; experiment: Antiviral activity against HIV-1 harboring reverse transcriptase F227L/V106A mutant infected in human MT4 cells assessed as protection against virus-induced cytopathic effect incubated for 5 days by MTT assay; conditions: Human immunodeficiency virus 1, MT4, 120 h
[15] = Terminal half life in Sprague-Dawley rat at 10 mg/kg, po measured upto 12 hrs by LC-MS/MS analysis; type: ADME, organism-based; conditions: in vivo, read-out: beta t1/2 (converted)
[16] = Terminal half life in Sprague-Dawley rat at 2 mg/kg, iv measured upto 10 hrs by LC-MS/MS analysis; type: ADME, organism-based; conditions: in vivo, read-out: beta t1/2 (converted)
[17] = Tmax in Sprague-Dawley rat at 2 mg/kg, iv measured upto 10 hrs by LC-MS/MS analysis; type: ADME, organism-based; conditions: in vivo
[18] = Tmax in Sprague-Dawley rat at 10 mg/kg, po measured upto 12 hrs by LC-MS/MS analysis; type: ADME, organism-based; conditions: in vivo
[19] = Cmax in Sprague-Dawley rat at 2 mg/kg, iv measured upto 10 hrs by LC-MS/MS analysis; type: ADME, organism-based; parameters: route intravenous, dose 2 mg/kg, time <=10; conditions: in vivo
[20] = Cmax in Sprague-Dawley rat at 10 mg/kg, po measured upto 12 hrs by LC-MS/MS analysis; type: ADME, organism-based; parameters: route oral, dose 10 mg/kg, time <=12; conditions: in vivo
[21] = AUC(0 to t) in Sprague-Dawley rat at 2 mg/kg, iv measured upto 10 hrs by LC-MS/MS analysis; type: ADME, organism-based; parameters: route intravenous, dose 2 mg/kg, time <=10; conditions: in vivo
[22] = AUC(0 to t) in Sprague-Dawley rat at 10 mg/kg, po measured upto 12 hrs by LC-MS/MS analysis; type: ADME, organism-based; parameters: route oral, dose 10 mg/kg, time <=12; conditions: in vivo
[23] = AUC(0 to infinity) in Sprague-Dawley rat at 2 mg/kg, iv measured upto 10 hrs by LC-MS/MS analysis; type: ADME, organism-based; parameters: route intravenous, dose 2 mg/kg, time <=10; conditions: in vivo
[24] = AUC(0 to infinity) in Sprague-Dawley rat at 10 mg/kg, po measured upto 12 hrs by LC-MS/MS analysis; type: ADME, organism-based; parameters: route oral, dose 10 mg/kg, time <=12; conditions: in vivo
[25] = Clearance in Sprague-Dawley rat at 2 mg/kg, iv measured upto 10 hrs by LC-MS/MS analysis; type: ADME, organism-based; conditions: in vivo
[26] = Oral bioavailability in Sprague-Dawley rat at 10 mg/kg measured upto 12 hrs by LC-MS/MS analysis; type: ADME, organism-based; conditions: in vivo
[27] = Aqueous solubility of the compound at pH 2.0 by HPLC analysis; type: physicochemical; conditions: buffer
[28] = Acute toxicity in Kunming mouse assessed as change in body weight at 2000 mg/kg, po measured for 7 days; type: organism-based; conditions: in vivo, time 7 day
[29] = system: Human immunodeficiency virus 1; experiment: Potency index, ratio of rilpivirine EC50 to test compound EC50 for antiviral activity against HIV-1 harboring reverse transcriptase Y188L mutant infected in human MT4 cells assessed as protection against virus-induced cytopathic effect incubated for 5 days by MTT assay; type: functional; conditions: time 5 day
[30] = system: Human immunodeficiency virus 1; experiment: Potency index, ratio of rilpivirine EC50 to test compound EC50 for antiviral activity against HIV-1 harboring reverse transcriptase F227L/V106A mutant infected in human MT4 cells assessed as protection against virus-induced cytopathic effect incubated for 5 days by MTT assay; type: functional; conditions: time 5 day

With Cc1cc(/C=C/C#N)cc(C)c1Oc1nc(Nc2ccc(C3CCCN(S(C)(=O)=O)CC3)cc2)nc2c1COC2 (stereo not given) the IC50 [1] was 230 nM.
Cc1cc(/C=C/C#N)cc(C)c1Oc1nc(Nc2ccc(N3CCC(NS(C)(=O)=O)CC3)cc2)nc2c1COC2 showed an IC50 [1] of 460 nM.
In the case of Cc1cc(/C=C/C#N)cc(C)c1Nc1ccnc(Nc2ccc(C#N)cc2)n1 [RILPIVIRINE], the solubility [2] is reported as under 1 µg/mL and the solubility [3] is reported as under 1 µg/mL.
Cc1cc(/C=C/C#N)cc(C)c1Oc1nc(NC2CCN(Cc3ccc(N)cc3)CC2)nc2c1COC2 showed an EC50 [4] of 3.37 nM, an EC50 [5] of 53.5 nM and a CC50 at 120 h [6] of 27000 nM. The selectivity ratio [7] was 8020, the selectivity ratio [8] was 505 and the EC50 [9] was 10.2 nM. The EC50 [10] was 5.58 nM, the EC50 [11] was 9.36 nM and the EC50 [12] was 51.4 nM. The EC50 [13] was 9.16 nM, the EC50 [14] was 37.6 nM and the IC50 [1] was 190 nM.
Work on Cc1cc(/C=C/C#N)cc(C)c1Oc1nc(Nc2ccc(N3CCN(S(C)(=O)=O)CC3)cc2)nc2c1COC2 yielded an IC50 [1] of 180 nM.
Compound Cc1cc(/C=C/C#N)cc(C)c1Oc1nc(Nc2ccc(N3CCC(NS(N)(=O)=O)CC3)cc2)nc2c1COC2 has an IC50 [1] of 1320 nM.
Cc1cc(/C=C/C#N)cc(C)c1Oc1nc(Nc2ccc(N3CCC(NS(N)(=O)=O)C3)cc2)nc2c1COC2 (stereo not given) gave an IC50 [1] of 1060 nM.
For Cc1cc(/C=C/C#N)cc(C)c1Oc1nc(Nc2ccc(C3CCCN(S(N)(=O)=O)CC3)cc2)nc2c1COC2 (stereo not given), the IC50 [1] was 90 nM.
For Cc1cc(/C=C/C#N)cc(C)c1Oc1nc(Nc2ccc(N3CCCC(NS(C)(=O)=O)C3)cc2)nc2c1COC2 (stereo not given), the IC50 [1] was 1240 nM.
Work on Cc1cc(/C=C/C#N)cc(C)c1Oc1nc(NC2CCN(c3ccc(N)cc3)CC2)nc2c1COC2 yielded an EC50 [4] of 35.4 nM, an EC50 [5] of 249 nM and a CC50 at 120 h [6] of 9140 nM. It also gave a selectivity ratio [7] of 258, a selectivity ratio [8] of 37 and an IC50 [1] of 180 nM.
In the case of Cc1cc(/C=C/C#N)cc(C)c1Oc1nc(NC2CCN(Cc3ccc([N+](=O)[O-])cc3)CC2)nc2c1COC2, the EC50 [4] is reported as 8.32 nM, the EC50 [5] is reported as 65 nM and the CC50 at 120 h [6] is reported as 6670 nM. It also gave a selectivity ratio [7] of 801, a selectivity ratio [8] of 103 and an EC50 [9] of 10.4 nM. For the same compound, the EC50 [10] was 7.78 nM, the EC50 [11] was 26.8 nM and the EC50 [12] was 94 nM. For the same compound, the EC50 [13] was 21.7 nM, the EC50 [14] was 60.5 nM and the IC50 [1] was 180 nM.
Cc1cc(/C=C/C#N)cc(C)c1Oc1nc(Nc2ccc(N3CCCC(NS(N)(=O)=O)C3)cc2)nc2c1COC2 (stereo not given) gave an IC50 [1] of 780 nM.
Compound Cc1cc(C#N)cc(C)c1Oc1nc(Nc2ccc(C#N)cc2)nc(N)c1Br [ETRAVIRINE] has an EC50 [5] of 72.3 nM, a CC50 at 120 h [6] of over 4590 nM and a selectivity ratio [7] of over 1170. The selectivity ratio [8] was over 64, the EC50 [10] was 4.65 nM and the EC50 [12] was 48.7 nM. It also gave an EC50 [13] of 15.4 nM, an EC50 [14] of 21.4 nM and a solubility [2] of under 1 µg/mL. The solubility [3] was under 1 µg/mL.
Cc1cc(/C=C/C#N)cc(C)c1Oc1nc(NC2CCN(Cc3ccc(C(N)=O)cc3)CC2)nc2c1COC2 showed a half-life [15] of 63 min, an EC50 [4] of 2.85 nM and an EC50 [5] of 11.7 nM. For the same compound, the CC50 at 120 h [6] was 24100 nM, the selectivity ratio [7] was 8450 and the selectivity ratio [8] was 2060. The EC50 [9] was 3.9 nM, the EC50 [10] was 2.14 nM and the EC50 [11] was 6.09 nM. For the same compound, the EC50 [12] was 18 nM, the EC50 [13] was 6.76 nM and the EC50 [14] was 9.67 nM. The IC50 [1] was 140 nM, the half-life [16] was 52.8 min and the Tmax [17] was 1.98 min. The Tmax [18] was 127 min, the Cmax [19] was 480 ng/mL and the Cmax [20] was 250 ng/mL. It also gave an AUC(0-t) at 10 h [21] of 409 ng·h/mL, an AUC(0-t) at 12 h [22] of 801 ng·h/mL and an AUC(0-inf) [23] of 503 ng·h/mL. For the same compound, the AUC(0-inf) [24] was 809 ng·h/mL, the clearance [25] was 66.3 mL/min/kg and the bioavailability [26] was 32.1%. The solubility [2] was 5.24 µg/mL (≈ 9.99 µM), the solubility [3] was 25.4 µg/mL (≈ 48.4 µM) and the solubility [27] was 187 µg/mL (≈ 356 µM). The Activity [28] was “Non-Toxic”, the “Ratio EC50” value [29] was 4.4 and the “Ratio EC50” value [30] was 8.4.
